Results from patent US20240009224A1, “ACYCLIC THREONINOL NUCLEIC ACID” (The University of Tokyo, priority 2021, published 2024).
{Fluorescein} = fluorescein label

Test system: HeLa cells
Assay: Flow cytometry of HeLa cells after introduction of fluorescein-labeled nucleic acid (cell membrane permeability)
Assay type: cell-based
Conditions: fluorescein-labeled control DNA = 1
Procedure: HeLa cells were cultured in Dulbecco's modified Eagle's medium (DMEM, manufactured by Thermo Fisher Scientific, Inc.) supplemented with 10% FBS and 0.5% penicillin/streptomycin in a humidified atmosphere (5 vol % CO2) at 37° C. Cells for image analysis were cultured in a 35 mm glass bottom dish (IWAKI, manufactured by AGC Techno Glass Co., Ltd.).
[…] On the day after seeding, the medium in each well was changed to DMEM medium (1 mL) containing a fluorescein-conjugated nucleic acid (2.5 μM) and incubated for 4 or 24 hours. Then, after washing the cell layer in the well twice with PBS, the cells were detached by treatment with 0.05% (w/v) trypsin (200 μL) at 37° C. for 5 minutes. The recovered cells were suspended in DMEM (600 μL). The cell suspension was separated by centrifugation process (400×g, 3 minutes), and PBS/1% BSA (500 μL) was added thereto. The ratio of fluorescent cells in this cell suspension and the mean fluorescence intensity were analyzed with a flow cytometer (“guava easyCyte8”, manufactured by Luminex Corporation).
After introducing a nucleic acid (fluorescein-labeled aTNA-N5[PFC8]) in which fluorescein was bound to the 3′-end of the synthesized aTNA-N5[PFC8] into HeLa cells, flow cytometry was performed, and the number of cells into which the fluorescein-labeled nucleic acid was introduced and the amount of fluorescein-labeled nucleic acid introduced into each cell were quantified based on the fluorescence intensity of fluorescein. As a control, a nucleic acid in which fluorescein was bound to the 3′-end of the control DNA (fluorescein-labeled control DNA) was also introduced into HeLa cells in the same manner and then analyzed by flow cytometry.
The fluorescein-labeled aTNA-N5[PFC8] produced in Example 1 was hybridized with a single-stranded DNA (control rDNA) composed of a base sequence (SEQ ID NO: 2) complementary to that of the control DNA to produce a fluorescein-labeled double-stranded DNA (fluorescein-labeled aTNA-N5[PFC8]/rDNA) having a repeating structure of the structure (A1) at the 5′-end and bound with fluorescein at the 3′-end. […] These fluorescein-labeled double-stranded DNAs were introduced into HeLa cells and then analyzed by flow cytometry in the same manner as in Example 1.
After respectively introducing nucleic acids (fluorescein-labeled aTNA-C2[PFC8] and fluorescein-labeled aTNA-C5[PFC8]) in which fluorescein was bound to the 3′-ends of the synthesized aTNA-C2[PFC8] and aTNA-C5[PFC8] into HeLa cells, flow cytometry was performed, and the number of cells into which the fluorescein-labeled nucleic acid was introduced and the amount of fluorescein-labeled nucleic acid introduced into each cell were quantified based on the fluorescence intensity of fluorescein. […]

Measured: Relative fluorescence intensity of cells into which fluorescein-labeled nucleic acid was introduced

Control DNA: control DNA (Seq. No. 1), natural single stranded DNA; fluorescein bound to the 3′-end (DNA TTTTTCAGTTGACCATATA; DNA, 3' {Fluorescein}, backbone and methylation of C not given here)
1.0: Example 1, single-stranded, 2.5 μM, 4 or 24 hours | Example 3, single-stranded | Example 4, single-stranded, 96-well plate, 10^4 cells per well, 2.5 μM, 4 hours | Example 6, single-stranded, 96-well plate, 10^4 cells per well, 2.0 μM, 4 hours
